Paper PMC10794144, “A novel antibiotic class targeting the lipopolysaccharide transporter” (Nature, 2024)

Tested on: A. baumannii
Assay: microbe, parasite or virus in culture
Procedure: MIC determinations were performed using the broth microdilution method and in line with CLSI guidelines M07 and M100 (refs. [37],[38]). Bacterial inocula were prepared by diluting a 0.5 McFarland suspension in CAMHB or lysogeny broth (LB) specifically for A. baylyi isolates. […] MIC values of all of the tested antibiotics were read as the lowest compound concentration inhibiting bacterial growth by naked eye or beyond which the OD600 ceased to decrease.

CN1C(=O)[C@H](CCCCN)NC(=O)[C@H](CCCN)NCc2cccnc2Sc2c(Cl)ccc(Cl)c2CNC(=O)[C@@H]1Cc1c[nH]c2ccccc12 [RO7075573]
16 mg/L: MIC 100% (ROB08706, Study LGC281440) | MIC 100% (ROB08707, Study LGC281440) | MIC 100% (ROB08708, Study LGC281440)
0.25 mg/L: MIC 80% (ROB08706, Study LGC281440) | MIC 80% (ROB08706, Study LGC282160) | MIC 80% (ROB08706, Study LGC285582) | MIC 80% (ROB08706, Study LGC295147) | MIC 80% (ROB08707, Study LGC301026)
1 mg/L: MIC 100% (ROB08705, Study LGC295147) | MIC 80% (ROB08706, Study LGC284879)
32 mg/L: MIC 100% (ROB08705, Study LGC294355) | MIC 100% (ROB08706, Study ROC012) | MIC 100% (ROB08707, Study ROC012)
>64 mg/L: MIC 100% (ROB08706, Study LGC284879) | MIC 100% (ROB08706, Study LGC293598) | MIC 100% (ROB08706, Study LGC294355) | MIC 100% (ROB08707, Study LGC284879) | MIC 100% (ROB08707, Study LGC293598) | MIC 100% (ROB08707, Study LGC294355) | MIC 100% (ROB08708, Study LGC284879)
0.12 mg/L: MIC 100% (ROB08705, Study LGC284879) | MIC 80% (ROB08705, Study LGC295147) | MIC 80% (ROB08705, Study LGC299544) | MIC 100% (ROB08705, Study LGC299544) | MIC 80% (ROB08705, Study ROC010) | MIC 100% (ROB08705, Study ROC012) | MIC 80% (ROB08707, Study LGC282160) | MIC 80% (ROB08707, Study LGC284879) | MIC 80% (ROB08707, Study LGC285582) | MIC 80% (ROB08707, Study LGC286210) | MIC 80% (ROB08707, Study LGC294355) | MIC 80% (ROB08707, Study LGC295147) | MIC 80% (ROB08707, Study LGC296813) | MIC 80% (ROB08707, Study LGC299544) | MIC 80% (ROB08707, Study ROC010) | MIC 100% (ROB08707, Study ROC010) | MIC 80% (ROB08707, Study ROC012) | MIC 80% (ROB08708, Study LGC282160) | MIC 80% (ROB08708, Study LGC284879) | MIC 80% (ROB08708, Study LGC286210)
0.5 mg/L: MIC 80% (ROB08706, Study LGC286210) | MIC 80% (ROB08706, Study LGC293598) | MIC 80% (ROB08706, Study LGC294355) | MIC 80% (ROB08706, Study LGC296813) | MIC 80% (ROB08706, Study LGC299544) | MIC 80% (ROB08706, Study LGC301026) | MIC 80% (ROB08706, Study LGC308175) | MIC 80% (ROB08706, Study ROC010) | MIC 100% (ROB08706, Study ROC010) | MIC 80% (ROB08706, Study ROC012)
64 mg/L: MIC 100% (ROB08705, Study ROC010) | MIC 100% (ROB08706, Study LGC282160) | MIC 100% (ROB08706, Study LGC285582) | MIC 100% (ROB08706, Study LGC286210) | MIC 100% (ROB08706, Study LGC295147) | MIC 100% (ROB08706, Study LGC296813) | MIC 100% (ROB08706, Study LGC299544) | MIC 100% (ROB08706, Study LGC301026) | MIC 100% (ROB08706, Study LGC308175) | MIC 100% (ROB08707, Study LGC282160) | MIC 100% (ROB08707, Study LGC285582) | MIC 100% (ROB08707, Study LGC286210) | MIC 100% (ROB08707, Study LGC295147) | MIC 100% (ROB08707, Study LGC296813) | MIC 100% (ROB08707, Study LGC299544) | MIC 100% (ROB08707, Study LGC301026) | MIC 100% (ROB08707, Study LGC308175) | MIC 100% (ROB08708, Study LGC282160) | MIC 100% (ROB08708, Study LGC285582) | MIC 100% (ROB08708, Study LGC286210)
≤0.06 mg/L: MIC 80% (ROB08705, Study LGC284879) | MIC 80% (ROB08705, Study LGC285582) | MIC 100% (ROB08705, Study LGC285582) | MIC 80% (ROB08705, Study LGC286210) | MIC 100% (ROB08705, Study LGC286210) | MIC 80% (ROB08705, Study LGC293598) | MIC 100% (ROB08705, Study LGC293598) | MIC 80% (ROB08705, Study LGC294355) | MIC 80% (ROB08705, Study LGC296813) | MIC 100% (ROB08705, Study LGC296813) | MIC 80% (ROB08705, Study LGC301026) | MIC 100% (ROB08705, Study LGC301026) | MIC 80% (ROB08705, Study LGC308175) | MIC 100% (ROB08705, Study LGC308175) | MIC 80% (ROB08705, Study ROC012) | MIC 80% (ROB08707, Study LGC281440) | MIC 80% (ROB08707, Study LGC293598) | MIC 80% (ROB08707, Study LGC308175) | MIC 80% (ROB08708, Study LGC281440) | MIC 80% (ROB08708, Study LGC285582)
